Common to all, as to assay type: cell-based
One assay concerns the target T1, hGIPR (Homo sapiens, UniProt P48546).
T1 construct: expressed in transfected cells
T1 sequence (P48546 22-466): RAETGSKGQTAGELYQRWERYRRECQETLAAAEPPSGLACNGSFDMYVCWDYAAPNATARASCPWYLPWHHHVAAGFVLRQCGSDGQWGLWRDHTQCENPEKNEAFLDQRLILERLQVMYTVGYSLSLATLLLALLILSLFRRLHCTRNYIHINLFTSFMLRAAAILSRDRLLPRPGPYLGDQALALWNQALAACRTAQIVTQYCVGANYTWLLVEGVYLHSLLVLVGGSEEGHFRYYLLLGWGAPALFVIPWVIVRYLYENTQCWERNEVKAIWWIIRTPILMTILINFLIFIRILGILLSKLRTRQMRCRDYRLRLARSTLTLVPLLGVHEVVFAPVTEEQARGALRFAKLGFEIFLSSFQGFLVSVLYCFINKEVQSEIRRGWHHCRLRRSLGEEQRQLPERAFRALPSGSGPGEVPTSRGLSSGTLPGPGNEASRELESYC
Kind of assay: Functional cAMP formation (HTRF) in HEK-293 clonal cells expressing hGIPR, 0.1% bovine casein, without or with 1.0% human serum albumin. The following applies: for Emax: percent of maximal response to GIP(1-42)NH2. The method, boiled down: (§1)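 Cells were stimulated with peptide for 30 min at 37° C, then lysed in buffer carrying cAMP-d2 and anti-cAMP Eu3+-cryptate for a competitive HTRF read after at least 60 min at room temperature. The 665/620 nm ratio was converted to nM cAMP against a standard curve.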
A general note: Cyclic AMP is a second messenger, typically raised through Gs and lowered through Gi signalling.

In the next assay the target is hGLP-1R (Homo sapiens, UniProt P43220). Put plainly: Functional cAMP formation (HTRF) in HEK-293 clonal cells expressing hGLP-1R, 0.1% bovine casein, without or with 1.0% human serum albumin. Also noted: expressed in transfected cells. The following applies: for Emax: percent of maximal response to GLP-1(7-36)NH2; for EC50: geometric mean. Put shortly:
as §1

In a further assay the target is T2, hGCGR (Homo sapiens, UniProt P47871).
T2 construct: expressed in transfected cells
Put plainly: Functional cAMP formation (HTRF) in HEK-293 clonal cells expressing hGCGR, 0.1% bovine casein, without or with 1.0% human serum albumin. The method, boiled down: as §1

[1] abbreviates: HEK293, read-out: hGIPR Emax, % ± SEM, cAMP, 37° C., 0.1% bovine casein and 1.0% human serum albumin.
[2] abbreviates: hGIPR EC50, nM (SEM, n), cAMP, 37° C., 0.1% bovine casein (no human serum albumin), geometric mean.
The mark [3] stands for this setting: hGLP-1R EC50, nM (SEM, n), cAMP, 37° C., 0.1% bovine casein (no human serum albumin).
Setting [4] is: hGCGR EC50, nM (SEM, n), cAMP, 37° C., 0.1% bovine casein (no human serum albumin), geometric mean.
[5] abbreviates: hGCGR EC50, nM (SEM, n), cAMP, 37° C., 0.1% bovine casein and 1.0% human serum albumin, geometric mean (SEM, n).

Each structure is given as a SMILES string. Like-named read-outs stand apart in the source and are kept apart here.

Among the data in US20230265151A1, “GIP/GLP1 CO-AGONIST COMPOUNDS” (priority 2020, published 2023) are Emax and EC50 values, retold here.

Chain of hGLP-1R (P43220 24-463): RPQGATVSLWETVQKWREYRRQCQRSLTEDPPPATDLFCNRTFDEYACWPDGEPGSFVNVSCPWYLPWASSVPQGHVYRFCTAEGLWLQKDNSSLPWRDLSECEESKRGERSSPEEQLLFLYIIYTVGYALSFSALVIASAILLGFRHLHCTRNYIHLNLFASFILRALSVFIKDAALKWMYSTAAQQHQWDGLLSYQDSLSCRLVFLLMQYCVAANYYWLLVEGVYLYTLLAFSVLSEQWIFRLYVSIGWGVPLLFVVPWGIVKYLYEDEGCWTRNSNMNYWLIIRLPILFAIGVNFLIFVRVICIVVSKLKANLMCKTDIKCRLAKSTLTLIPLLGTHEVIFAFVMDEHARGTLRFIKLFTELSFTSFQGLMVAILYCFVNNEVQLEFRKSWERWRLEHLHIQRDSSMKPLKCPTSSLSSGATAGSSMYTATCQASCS
T2 sequence (P47871 26-477): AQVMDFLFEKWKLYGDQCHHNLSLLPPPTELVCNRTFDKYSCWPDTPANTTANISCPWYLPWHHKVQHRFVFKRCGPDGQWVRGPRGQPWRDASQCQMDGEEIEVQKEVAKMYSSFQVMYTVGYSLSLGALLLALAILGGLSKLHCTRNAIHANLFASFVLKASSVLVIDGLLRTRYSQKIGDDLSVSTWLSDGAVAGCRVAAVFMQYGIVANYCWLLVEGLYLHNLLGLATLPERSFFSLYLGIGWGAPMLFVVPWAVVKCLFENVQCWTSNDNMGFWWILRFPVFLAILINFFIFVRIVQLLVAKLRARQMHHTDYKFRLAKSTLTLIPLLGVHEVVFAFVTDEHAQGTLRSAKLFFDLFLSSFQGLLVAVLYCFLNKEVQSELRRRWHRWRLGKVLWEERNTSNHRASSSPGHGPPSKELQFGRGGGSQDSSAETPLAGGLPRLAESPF

With `CC[C@H](C)[C@H](NC(=O)[C@H](CCCN)NC(=O)[C@H](CC(=O)O)NC(=O)[C@H](CC(C)C)NC(=O)[C@](C)(CC(C)C)NC(=O)[C@@H](NC(=O)C(C)(C)NC(=O)[C@H](Cc1ccc(O)cc1)NC(=O)[C@H](CC(=O)O)NC(=O)[C@H](CO)NC(=O)[C@@H](NC(=O)[C@](C)(Cc1ccccc1F)NC(=O)[C@@H](NC(=O)CNC(=O)[C@H](CCC(=O)O)NC(=O)C(C)(C)NC(=O)[C@@H](N)Cc1ccc(O)cc1)[C@@H](C)O)[C@@H](C)O)[C@@H](C)CC)C(=O)N[C@@H](C)C(=O)N[C@@H](CCC(N)=O)C(=O)NC(C)(C)C(=O)N[C@@H](CCC(=O)O)C(=O)N[C@@H](Cc1ccccc1)C(=O)N[C@H](C(=O)N[C@@H](CCCCNC(=O)COCCOCCNC(=O)CC[C@H](NC(=O)CCCCCCCCCOc1ccc(C(=O)O)cc1)C(=O)O)C(=O)N[C@@](C)(Cc1ccc(O)cc1)C(=O)N[C@@H](CC(C)C)C(=O)N[C@H](C(=O)N[C@@H](CCCCNC(=O)COCCOCCNC(=O)CC[C@H](NC(=O)CCCCCCCCCOc1ccc(C(=O)O)cc1)C(=O)O)C(=O)NCC(=O)NCC(=O)N1CCC[C@H]1C(=O)N[C@@H](CO)C(=O)N[C@@H](CO)C(=O)NCC(=O)N[C@@H](C)C(=O)N1CCC[C@H]1C(=O)N1CCC[C@H]1C(=O)N1CCC[C@H]1C(=O)N[C@@H](CO)C(N)=O)[C@@H](C)CC)[C@@H](C)CC` [Example 375], the Emax (as a rule, the size of the effect at its maximum, as opposed to the concentration needed) on hGIPR (setting [1]) came out at 85.4%; on hGIPR (HEK293, read-out: hGIPR Emax, % ± SEM, cAMP, 37° C., 0.1% bovine casein, arithmetic mean), 100%; on hGLP-1R (HEK293, read-out: hGLP-1R Emax, % ± SEM, cAMP, 37° C., 0.1% bovine casein and 1.0% human serum albumin) it was 113%. Besides, the EC50 (commonly the concentration giving half of the maximal effect) at hGIPR (setting [2]) is 0.0566 nM; on hGIPR (hGIPR EC50, nM (SEM, n), cAMP, 37° C., 0.1% bovine casein and 1.0% human serum albumin, geometric mean (SEM, n)), 4.68 nM; on hGLP-1R (setting [3]), 1.11 nM; on hGCGR (setting [4]) it was greater than 9950 nM; on hGCGR (setting [5]), greater than 9950 nM.
As for `CC[C@H](C)[C@H](NC(=O)[C@H](CC(C)C)NC(=O)[C@](C)(Cc1ccc(O)cc1)NC(=O)[C@@H](CCC(=O)O)NC(=O)[C@@H](NC(=O)[C@H](Cc1ccccc1)NC(=O)[C@H](CCC(=O)O)NC(=O)C(C)(C)NC(=O)[C@H](CCC(N)=O)NC(=O)[C@H](C)NC(=O)[C@H](CCCCNC(=O)COCCOCCNC(=O)COCCOCCNC(=O)CC[C@H](NC(=O)CCCc1ccc(C(C)(C)C)cc1)C(=O)O)NC(=O)[C@H](CCCN)NC(=O)[C@H](CC(=O)O)NC(=O)[C@H](CC(C)C)NC(=O)[C@](C)(CC(C)C)NC(=O)[C@@H](NC(=O)[C@H](CO)NC(=O)[C@H](Cc1ccncc1)NC(=O)[C@H](CC(=O)O)NC(=O)[C@H](CO)NC(=O)[C@@H](NC(=O)[C@](C)(Cc1ccccc1F)NC(=O)[C@@H](NC(=O)CNC(=O)[C@H](CCC(=O)O)NC(=O)C(C)(C)NC(=O)[C@@H](N)Cc1ccc(O)cc1)[C@@H](C)O)[C@@H](C)O)[C@@H](C)CC)[C@@H](C)CC)C(=O)N[C@@H](CCCCNC(=O)COCCOCCNC(=O)COCCOCCNC(=O)CC[C@H](NC(=O)CCCc1ccc(C(C)(C)C)cc1)C(=O)O)C(=O)NCC(=O)NCC(=O)N1CCC[C@H]1C(=O)N[C@@H](CO)C(=O)N[C@@H](CO)C(=O)NCC(=O)N[C@@H](C)C(=O)N1CCC[C@H]1C(=O)N1CCC[C@H]1C(=O)N1CCC[C@H]1C(=O)N[C@@H](CO)C(N)=O` [Example 133], the EC50 is 0.0695 nM at hGIPR (0.1% bovine casein and 1.0% human serum albumin, 37° C., geometric mean, read-out: hGIPR EC50, nM (SEM, n)); 0.018 nM on hGIPR (cAMP, incubated at 37° C., 0.1% bovine casein (no human serum albumin), geometric mean, read-out: hGIPR EC50, nM (SEM, n)); 1.17 nM at hGLP-1R (0.1% bovine casein and 1.0% human serum albumin, 37° C., read-out: hGLP-1R EC50, nM (SEM, n)); greater than 9950 nM at hGCGR (0.1% bovine casein and 1.0% human serum albumin, 37° C., geometric mean, read-out: hGCGR EC50, nM (SEM, n)); greater than 9950 nM at hGCGR (cAMP, incubated at 37° C., 0.1% bovine casein (no human serum albumin), geometric mean, read-out: hGCGR EC50, nM (SEM, n)). For the same compound, on hGIPR (HEK293, 0.1% bovine casein and 1.0% human serum albumin, 37° C., read-out: hGIPR Emax, % ± SEM), the Emax came out at 89.1 ± 4.64%.
With `CC[C@H](C)[C@H](NC(=O)[C@H](CC(C)C)NC(=O)[C@](C)(Cc1ccc(O)cc1)NC(=O)[C@H](CCCCNC(=O)COCCOCCNC(=O)CC[C@H](NC(=O)CCCCCCCCCCCCC(=O)O)C(=O)O)NC(=O)[C@@H](NC(=O)[C@H](Cc1ccccc1)NC(=O)[C@H](CCC(=O)O)NC(=O)C(C)(C)NC(=O)[C@H](CCC(N)=O)NC(=O)[C@H](C)NC(=O)[C@H](CCCCNC(=O)COCCOCCNC(=O)CC[C@H](NC(=O)CCCCCCCCCCCCC(=O)O)C(=O)O)NC(=O)[C@H](CCCN)NC(=O)[C@H](CC(=O)O)NC(=O)[C@H](CC(C)C)NC(=O)[C@](C)(CC(C)C)NC(=O)[C@@H](NC(=O)[C@H](CO)NC(=O)[C@H](Cc1ccncc1)NC(=O)[C@H](CC(=O)O)NC(=O)[C@H](CO)NC(=O)[C@@H](NC(=O)[C@](C)(Cc1ccccc1F)NC(=O)[C@@H](NC(=O)CNC(=O)[C@H](CCC(=O)O)NC(=O)C(C)(C)NC(=O)[C@@H](N)Cc1ccc(O)cc1)[C@@H](C)O)[C@@H](C)O)[C@@H](C)CC)[C@@H](C)CC)C(=O)N[C@@H](CCC(=O)O)C(=O)NCC(=O)NCC(=O)N1CCC[C@H]1C(=O)N[C@@H](CO)C(=O)N[C@@H](CO)C(=O)NCC(=O)N[C@@H](C)C(=O)N1CCC[C@H]1C(=O)N1CCC[C@H]1C(=O)N1CCC[C@H]1C(=O)N[C@@H](CO)C(N)=O` [Example 79], the maximum response (Emax) on hGIPR (HEK293, read-out: hGIPR Emax, % ± SEM, 0.1% bovine casein and 1.0% human serum albumin, 37° C.) was 95%. In addition, the EC50 was 2.31 nM at hGIPR (hGIPR EC50, nM (SEM, n), 0.1% bovine casein and 1.0% human serum albumin, 37° C., geometric mean); 0.013 nM on hGIPR (hGIPR EC50, nM (SEM, n), cAMP, incubated at 37° C., 0.1% bovine casein (no human serum albumin), geometric mean); 15.1 nM on hGLP-1R (hGLP-1R EC50, nM (SEM, n), 0.1% bovine casein and 1.0% human serum albumin, 37° C.); 0.223 nM on hGLP-1R (hGLP-1R EC50, nM (SEM, n), cAMP, incubated at 37° C., 0.1% bovine casein (no human serum albumin)); greater than 9950 nM on hGCGR (hGCGR EC50, nM (SEM, n), 0.1% bovine casein and 1.0% human serum albumin, 37° C., geometric mean); greater than 9950 nM at hGCGR (hGCGR EC50, nM (SEM, n), cAMP, incubated at 37° C., 0.1% bovine casein (no human serum albumin), geometric mean).
As for `CC[C@H](C)[C@H](NC(=O)[C@H](CCCN)NC(=O)[C@H](CC(=O)O)NC(=O)[C@H](CC(C)C)NC(=O)[C@](C)(CC(C)C)NC(=O)[C@@H](NC(=O)C(C)(C)NC(=O)[C@@H](NC(=O)[C@H](CC(=O)O)NC(=O)[C@H](CO)NC(=O)[C@@H](NC(=O)[C@](C)(Cc1ccccc1F)NC(=O)[C@@H](NC(=O)CNC(=O)[C@H](CCC(=O)O)NC(=O)C(C)(C)NC(=O)[C@@H](N)Cc1ccc(O)cc1)[C@@H](C)O)[C@@H](C)O)C(C)C)[C@@H](C)CC)C(=O)N[C@@H](C)C(=O)N[C@@H](CCC(N)=O)C(=O)NC(C)(C)C(=O)N[C@@H](CCC(=O)O)C(=O)N[C@@H](Cc1ccccc1)C(=O)N[C@H](C(=O)N[C@@H](CCCCNC(=O)COCCOCCNC(=O)CC[C@H](NC(=O)CCCCCCCCCOc1ccc(C(=O)O)cc1)C(=O)O)C(=O)N[C@@](C)(Cc1ccc(O)cc1)C(=O)N[C@@H](CC(C)C)C(=O)N[C@H](C(=O)N[C@@H](CCCCNC(=O)COCCOCCNC(=O)CC[C@H](NC(=O)CCCCCCCCCOc1ccc(C(=O)O)cc1)C(=O)O)C(=O)NCC(=O)NCC(=O)N1CCC[C@H]1C(=O)N[C@@H](CO)C(=O)N[C@@H](CO)C(=O)NCC(=O)N[C@@H](C)C(=O)N1CCC[C@H]1C(=O)N1CCC[C@H]1C(=O)N1CCC[C@H]1C(=O)N[C@@H](CO)C(N)=O)[C@@H](C)CC)[C@@H](C)CC` [Example 381], the Emax at hGIPR (setting [1]) was 90.3%; at hGLP-1R (HEK293, read-out: hGLP-1R Emax, % ± SEM, cAMP, 37° C., 0.1% bovine casein, arithmetic mean) it was 105%. In addition, the EC50 at hGIPR (setting [2]) was 0.0784 nM; on hGLP-1R (setting [3]) it was 1.1 nM; on hGCGR (setting [4]) it was greater than 9950 nM; on hGCGR (setting [5]), greater than 9950 nM.
